Numbers after ± are expanded uncertainties.
COC(F)(F)C(F)(F)F [methyl pentafluoroethyl ether]
Conditions	mass density [kg/m3]
240 K, 142.7 kPa, Liquid	1425.44 ± 1.6
240 K, 525.8 kPa, Liquid	1426.3 ± 1.6
240 K, 1016.6 kPa, Liquid	1427.42 ± 1.7
240 K, 1498.9 kPa, Liquid	1428.49 ± 1.8
240 K, 2020 kPa, Liquid	1429.64 ± 1.9
240 K, 2495.8 kPa, Liquid	1430.67 ± 1.9
240 K, 3020.1 kPa, Liquid	1431.83 ± 2
240 K, 3526.2 kPa, Liquid	1432.91 ± 2.1
240 K, 4022.9 kPa, Liquid	1433.98 ± 2.1
240 K, 4516.7 kPa, Liquid	1435.03 ± 2.2
240 K, 5006.8 kPa, Liquid	1436.06 ± 2.3
240 K, 5507.4 kPa, Liquid	1437.1 ± 2.4
240 K, 6031.3 kPa, Liquid	1438.18 ± 2.4
240 K, 6522.4 kPa, Liquid	1439.2 ± 2.5
240 K, 6991.3 kPa, Liquid	1440.14 ± 2.6
250 K, 508.4 kPa, Liquid	1401.06 ± 1.6
250 K, 999.4 kPa, Liquid	1402.28 ± 1.6
250 K, 1512.6 kPa, Liquid	1403.57 ± 1.7
250 K, 1981.4 kPa, Liquid	1404.73 ± 1.8
250 K, 2484.2 kPa, Liquid	1405.96 ± 1.8
250 K, 3006.1 kPa, Liquid	1407.22 ± 1.9
250 K, 3493.4 kPa, Liquid	1408.39 ± 2
250 K, 4031.6 kPa, Liquid	1409.66 ± 2
250 K, 4527.8 kPa, Liquid	1410.82 ± 2.1
250 K, 5017.1 kPa, Liquid	1411.96 ± 2.2
250 K, 5520.4 kPa, Liquid	1413.12 ± 2.2
250 K, 5982.1 kPa, Liquid	1414.17 ± 2.3
250 K, 6505.2 kPa, Liquid	1415.37 ± 2.4
250 K, 6941.8 kPa, Liquid	1416.34 ± 2.4
260 K, 86.5 kPa, Liquid	1374.31 ± 1.4
260 K, 500.8 kPa, Liquid	1375.48 ± 1.5
260 K, 1002.7 kPa, Liquid	1376.9 ± 1.5
260 K, 1516.5 kPa, Liquid	1378.35 ± 1.6
260 K, 2001 kPa, Liquid	1379.71 ± 1.7
260 K, 2509.7 kPa, Liquid	1381.11 ± 1.7
260 K, 3006.5 kPa, Liquid	1382.45 ± 1.8
260 K, 3509.7 kPa, Liquid	1383.8 ± 1.9
260 K, 4009.1 kPa, Liquid	1385.14 ± 1.9
260 K, 4516.6 kPa, Liquid	1386.48 ± 2
260 K, 5008.9 kPa, Liquid	1387.75 ± 2
260 K, 5494.8 kPa, Liquid	1389 ± 2.1
260 K, 6029.6 kPa, Liquid	1390.36 ± 2.2
260 K, 6497.8 kPa, Liquid	1391.53 ± 2.2
260 K, 6976.1 kPa, Liquid	1392.71 ± 2.3
270 K, 526.2 kPa, Liquid	1348.82 ± 1.4
270 K, 1033.1 kPa, Liquid	1350.45 ± 1.4
270 K, 1545.3 kPa, Liquid	1352.07 ± 1.5
270 K, 2026.1 kPa, Liquid	1353.57 ± 1.6
270 K, 2522.2 kPa, Liquid	1355.11 ± 1.6
270 K, 3044.2 kPa, Liquid	1356.7 ± 1.7
270 K, 3549.7 kPa, Liquid	1358.22 ± 1.8
270 K, 3956.7 kPa, Liquid	1359.43 ± 1.8
270 K, 4491.8 kPa, Liquid	1360.99 ± 1.9
270 K, 5023.1 kPa, Liquid	1362.54 ± 1.9
270 K, 5514.7 kPa, Liquid	1363.95 ± 2
270 K, 6030.4 kPa, Liquid	1365.42 ± 2.1
270 K, 6512.4 kPa, Liquid	1366.76 ± 2.1
270 K, 6977.7 kPa, Liquid	1367.99 ± 2.2
280 K, 445.3 kPa, Liquid	1320.87 ± 1.3
280 K, 957.2 kPa, Liquid	1322.76 ± 1.3
280 K, 1474.3 kPa, Liquid	1324.63 ± 1.4
280 K, 1861.1 kPa, Liquid	1326.03 ± 1.4
280 K, 2459.7 kPa, Liquid	1328.12 ± 1.5
280 K, 2951.9 kPa, Liquid	1329.83 ± 1.6
280 K, 3497.7 kPa, Liquid	1331.69 ± 1.6
280 K, 3963.9 kPa, Liquid	1333.26 ± 1.7
280 K, 4513.2 kPa, Liquid	1335.09 ± 1.8
280 K, 4981.9 kPa, Liquid	1336.62 ± 1.8
280 K, 5492.2 kPa, Liquid	1338.26 ± 1.9
280 K, 5847.1 kPa, Liquid	1339.41 ± 1.9
280 K, 6466.8 kPa, Liquid	1341.37 ± 2
280 K, 7194.3 kPa, Liquid	1343.64 ± 2.1
290 K, 83.3 kPa, Liquid	1290.78 ± 1.2
290 K, 504.8 kPa, Liquid	1292.57 ± 1.2
290 K, 981.6 kPa, Liquid	1294.58 ± 1.2
290 K, 1520.9 kPa, Liquid	1296.8 ± 1.3
290 K, 2011.5 kPa, Liquid	1298.79 ± 1.4
290 K, 2520.4 kPa, Liquid	1300.82 ± 1.4
290 K, 2991.9 kPa, Liquid	1302.67 ± 1.5
290 K, 3491.2 kPa, Liquid	1304.61 ± 1.5
290 K, 4006.3 kPa, Liquid	1306.56 ± 1.6
290 K, 4525.3 kPa, Liquid	1308.51 ± 1.6
290 K, 4985.1 kPa, Liquid	1310.22 ± 1.7
290 K, 5527.4 kPa, Liquid	1312.2 ± 1.8
290 K, 6024.9 kPa, Liquid	1313.97 ± 1.8
290 K, 6484.8 kPa, Liquid	1315.61 ± 1.9
290 K, 6967.8 kPa, Liquid	1317.32 ± 1.9
300 K, 45.7 kPa, Gas	2.84 ± 0.29
300 K, 56.7 kPa, Gas	3.73 ± 0.29
300 K, 82 kPa, Gas	5.31 ± 0.29
300 K, 93.3 kPa, Gas	6.05 ± 0.29
300 K, 98.2 kPa, Gas	6.15 ± 0.29
300 K, 116.1 kPa, Gas	7.55 ± 0.3
300 K, 131.7 kPa, Gas	8.6 ± 0.3
300 K, 165.9 kPa, Gas	10.97 ± 0.3
300 K, 188.8 kPa, Gas	12.58 ± 0.31
300 K, 218.2 kPa, Gas	15.51 ± 0.32
300 K, 225.7 kPa, Liquid	1260.66 ± 1.1
300 K, 238.5 kPa, Liquid	1260.72 ± 1.1
300 K, 491.2 kPa, Liquid	1262.72 ± 1.1

Liquid
Conditions	mass density [kg/m3]
240 K	1425.22 ± 1.6
250 K	1399.85 ± 1.5
260 K	1374.2 ± 1.4
270 K	1347.19 ± 1.4
280 K	1319.62 ± 1.3
290 K	1291.09 ± 1.2

Source: the NIST ThermoML archive (doi:10.1021/je025657+)
